Blank lines part the entries; values can stand above or below the compound they belong to.
What was measured:
CCRF-CEM cells [1] = assay: [3H]MTX uptake (initial velocity and 30 min accumulation) in CCRF-CEM cells; format: cell-based, human; settings: for Potentiation of [3H]MTX uptake at 30 min: compound at 0.5 mM, 10 min pre-incubation with TMTX
Procedure: (§1) Quantitation of folate and antifolate uptake. The method is essentially as follows. Briefly, logarithmically growing (3-5×10^5/ml) CCRF-CEM cells were harvested at room temperature by centrifugation at 1000×g for 5 min. After washing with the appropriate medium, cells were suspended at ≈2×10^7 cells/ml for use in transport studies. […] Anion-free MHS contains 250 mM sucrose and 20 mM HEPES, titrated to pH 7.4 with MgO. […] Uptake was measured as a function of time for 30 min (for rate and extent measurements) or over 5 min (studies requiring initial velocities). […] Uptake was terminated by diluting 100 μL samples into 1 ml of iced 0.9% NaCl. […] The supernatant was aspirated. The cell pellet was washed once with 1 ml iced 0.9% NaCl and centrifuged as above. The washed pellet was solubilized in 1 ml of 0.3% Triton X-100 by incubation for 60 min at 37° C. The solubilized pellet was transferred to a scintillation vial, 10 ml of Liquiscint (National Diagnostics, Atlanta, Ga.) was added and radioactivity was quantitated in a Beckman Model LS6500 liquid scintillation counter. Separate samples at the longest incubation time used in a particular experiment were harvested for HPLC analysis of intracellular contents as above, except that after the second wash the pellets were extracted with 1 ml boiling 0.1 M Na-phosphate, pH 5.5. The extract was clarified by centrifugation and the supernatant was filtered through an MPS-1 filter unit (Amicon) prior to HPLC analysis.

[2] = molecular target: T1, reduced folate carrier (RFC) (Homo sapiens, UniProt P41440); assay: Inhibition of initial velocity of [3H]MTX influx by competitors; format: cell-based; settings: for IC50: IC50, inhibition of initial velocity of [3H]MTX influx
T1 construct: endogenous in cells; host or cells: CCRF-CEM (parental)
T1 sequence (P41440 1-591): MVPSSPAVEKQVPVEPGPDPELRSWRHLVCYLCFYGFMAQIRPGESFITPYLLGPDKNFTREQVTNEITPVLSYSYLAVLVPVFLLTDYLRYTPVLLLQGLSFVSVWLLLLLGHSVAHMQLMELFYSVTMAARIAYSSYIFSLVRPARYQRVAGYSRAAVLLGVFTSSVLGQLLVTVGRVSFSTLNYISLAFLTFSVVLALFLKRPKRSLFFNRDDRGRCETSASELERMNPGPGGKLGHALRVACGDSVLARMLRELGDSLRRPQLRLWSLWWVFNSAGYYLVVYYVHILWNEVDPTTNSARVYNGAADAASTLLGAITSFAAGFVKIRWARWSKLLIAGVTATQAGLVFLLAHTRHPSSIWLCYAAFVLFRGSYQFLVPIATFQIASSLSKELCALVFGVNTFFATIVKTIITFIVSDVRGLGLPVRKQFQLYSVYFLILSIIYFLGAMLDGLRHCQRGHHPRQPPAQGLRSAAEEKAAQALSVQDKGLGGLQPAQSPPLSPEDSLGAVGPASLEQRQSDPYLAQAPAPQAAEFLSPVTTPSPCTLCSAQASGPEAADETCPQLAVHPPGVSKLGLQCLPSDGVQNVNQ
Procedure: Duplicate samples were removed at 5 min and processed as described above.
Inhibition of the vi of uptake was measured after pre-incubation of CCRF-CEM cells either with TMTX alone (measuring inhibition at the RFC) or with TMTX+Z (measuring inhibition during Z potentiation). […] All studies were carried out in standard transport medium. Inhibitory potency was measured in two series of experiments and AMT was included in each series as an internal control. Values are average±range of two determinations. […] Values are average±range for duplicate determinations.

CCRF-CEM cells [3] = assay: [3H]leucovorin uptake in CCRF-CEM cells; format: cell-based, human
Procedure: as §1

CCRF-CEM cells [4] = assay: cells; format: cell-based, human; settings: read-out: EC50 for growth inhibition
Procedure: Inhibition of growth of human cell lines in vitro. Inhibition of growth of CCRF-CEM in continuous and intermittent drug exposures was measured. EC50 values were determined from plots of percent control growth versus the logarithm of drug concentration.
[…]; n=2). […]; n=2). Values presented are average±S.D. for n>2 and average±range for n=2. […] […]; EC50 data may therefore underestimate the biological potency.

CCRF-CEM cells [5] = assay: Accumulation of DDATHF polyglutamates in CCRF-CEM cells; format: cell-based, human; settings: for DDATHF-Glun, N = 1 / DDATHF-Glun, N = 2 / DDATHF-Glun, N = 3 / DDATHF-Glun, N = 4 / DDATHF-Glun, N = 5 / DDATHF-Glun, N = 6 / DDATHF-Glun, Total / DDATHF-Glun, Total N ≧ 3: 4 hr, 1 μM [3H]DDATHF
Procedure: At the end of the exposure cells were rapidly chilled to 4 degrees C., harvested by centrifugation at 1000×g for 5 min, washed twice with iced 0.9% NaCl by centrifugation in the same manner. One mL of boiling 50 mM Na-phosphate, pH 5.5 was added, the pellet was triturated and the sample boiled for 5 min. The sample was rapidly cooled to 4 degrees C. Debris was removed by centrifugation as above. The supernatant was further clarified by centrifugation through an Amicon MPS-1 filter unit. […] A suitable volume was injected onto a reversed-phase HPLC column (C18) and eluted with a gradient of from 4-14% acetonitrile over about 43 min. One min fractions were collected and, after addition of 10 ml scintillation fluid, were quantitated by liquid scintillation counting. […]

[6] = +TMTX + Z, 10 min pre-incubation with 1 μM TMTX and 0.5 mM Z (Z potentiated influx)
[7] = +TMTX, 10 min pre-incubation with 1 μM TMTX alone (inhibition of the RFC)
[8] = 1 mM, 30 min incubation, TMTX present, Z absent

Compound: O=CO [formate]
Ability to potentiate [3H]MTX uptake (CCRF-CEM cells [1]): unable to potentiate

IC50 [2, 6]: 1.3 ± 0.4 µM
IC50 [2, 7]: 1 ± 0.1 µM
Compound: Cc1nc2ccc3ccc(CNc4ccc5c(c4)CN([C@@H](CCC(=O)O)C(=O)O)C5=O)cc3c2c(=O)[nH]1 [BW1843U89, (S)-2-(5-(((1,2-dihydro-3-methyl-1-oxobenzo(F)quinazolin-9-yl)methyl)-amino)-1-oxo-2-isoindolinyl)glutaric acid]

Compound: OC[C@H]1O[C@@H](n2cnc3c(O)ncnc32)C[C@@H]1O [deoxyinosine]
Potentiation of [3H]MTX uptake at 30 min (CCRF-CEM cells [1]): do not potentiate

Compound: Nc1nc2c(ncn2[C@@H]2O[C@H](CO)[C@@H](O)[C@H]2O)c(=O)[nH]1 [guanosine]
Ability to potentiate [3H]MTX uptake (CCRF-CEM cells [1]): unable to potentiate
Potentiation of [3H]MTX uptake at 30 min (CCRF-CEM cells [1]): do not potentiate

Compound: OC[C@H]1O[C@@H](n2cnc3c(O)ncnc32)[C@H](O)[C@@H]1O [inosine]
Ability to potentiate [3H]MTX uptake (CCRF-CEM cells [1]): unable to potentiate
Potentiation of [3H]MTX uptake at 30 min (CCRF-CEM cells [1]): do not potentiate

Compound: Nc1nc2nc[nH]c2c(=O)[nH]1 [guanine]
Potentiation of [3H]MTX uptake at 30 min (CCRF-CEM cells [1]): do not potentiate

Compound: Cc1cn([C@H]2C[C@H](O)[C@@H](CO)O2)c(=O)[nH]c1=O [thymidine]
Potentiation of [3H]MTX uptake at 30 min (CCRF-CEM cells [1]): do not potentiate

Compound: Nc1ncnc2c1ncn2[C@@H]1O[C@H](CO)[C@@H](O)[C@H]1O [Adenosine, adenosine]
Ability to potentiate [3H]MTX uptake (CCRF-CEM cells [1]): unable to potentiate
Potentiation of [3H]MTX uptake at 30 min (CCRF-CEM cells [1]): do not potentiate

IC50 [2, 6]: 18.5 ± 1.1 µM
IC50 [2, 7]: 18.6 ± 0.6 µM
Plateau in inhibition of [3H]MTX influx ([2]; observed ±Z, data not shown): 60-70%
Compound: Nc1nc2ncc(CNc3ccc(C(=O)N[C@@H](CCC(=O)O)C(=O)O)cc3)nc2c(=O)[nH]1 [PteGlu, folic acid]

EC50 (CCRF-CEM cells [4]): 0.6 µM
Compound: Cc1ccc2nc(N)[nH]c(=O)c2c1Sc1ccncc1 [AG337]
Effect on potentiation of LV uptake induced by TMTX+Z (CCRF-CEM cells [3]; 20 μM): completely block
Potentiation of [3H]LV uptake (CCRF-CEM cells [3]; 10 min preincubation at 2 or 20 μM, presence or absence of Z): does not potentiate

Compound: Nc1nc2c(c(=O)[nH]1)CC(CCc1ccc(C(=O)N[C@@H](CCC(=O)O)C(=O)O)cc1)CN2 (some centres unmarked) [DDATHF, 5,10-dideazatetrahydrofolate]
Effect of Z on DDATHF uptake (CCRF-CEM cells [5]; 30 min incubation): no effect of Z was observed
Increase of total drug accumulation by Z (CCRF-CEM cells [5]; 4 hr incubation with 1 μM [3H]DDATHF): 11%
DDATHF-Glun, N = 1 (CCRF-CEM cells [5]; +Z): 17.5 ± 1.3 pmol/10^7 cells
DDATHF-Glun, N = 2 (CCRF-CEM cells [5]; +Z): 5.9 ± 0.1 pmol/10^7 cells
DDATHF-Glun, N = 3 (CCRF-CEM cells [5]; +Z): 10.1 ± 0.1 pmol/10^7 cells
DDATHF-Glun, N = 4 (CCRF-CEM cells [5]; +Z): 15.2 ± 0.8 pmol/10^7 cells
DDATHF-Glun, N = 5 (CCRF-CEM cells [5]; +Z): 29.8 ± 0.3 pmol/10^7 cells
DDATHF-Glun, N = 6 (CCRF-CEM cells [5]; +Z): 33.0 ± 2.3 pmol/10^7 cells
DDATHF-Glun, Total (CCRF-CEM cells [5]; +Z): 111.3 pmol/10^7 cells
DDATHF-Glun, Total N ≧ 3 (CCRF-CEM cells [5]; +Z): 88.0 pmol/10^7 cells
DDATHF-Glun, N = 1 (CCRF-CEM cells [5]; −Z): 14.8 ± 0.8 pmol/10^7 cells
DDATHF-Glun, N = 2 (CCRF-CEM cells [5]; −Z): 4.9 ± 0.8 pmol/10^7 cells
DDATHF-Glun, N = 3 (CCRF-CEM cells [5]; −Z): 9.2 ± 0.9 pmol/10^7 cells
DDATHF-Glun, N = 4 (CCRF-CEM cells [5]; −Z): 13.3 ± 2.1 pmol/10^7 cells
DDATHF-Glun, N = 5 (CCRF-CEM cells [5]; −Z): 28.1 ± 2.1 pmol/10^7 cells
DDATHF-Glun, N = 6 (CCRF-CEM cells [5]; −Z): 30.5 ± 0.9 pmol/10^7 cells
DDATHF-Glun, Total (CCRF-CEM cells [5]; −Z): 100.8 pmol/10^7 cells
DDATHF-Glun, Total N ≧ 3 (CCRF-CEM cells [5]; −Z): 81.1 pmol/10^7 cells

Compound: CCCC(=O)Nc1ncnc2c1ncn2[C@@H]1O[C@@H]2COP(=O)(O)O[C@H]2[C@H]1OC(=O)CCC [dibutyryl-cAMP]
30 min accumulation of [3H]MTX compared to TMTX alone (CCRF-CEM cells [1]; [8]): lower 30 min accumulation
Initial velocity of [3H]MTX uptake compared to TMTX alone (CCRF-CEM cells [1]; [8]): reduced initial velocity

Source: US7687473B2, “5-amino-4-imidazolecarboxamide riboside and its nucleobase as potentiators of antifolate transport and metabolism” (Health Research, Inc., priority 2005, dated 2010)
